Measured values as given in EP0601187A1, “NOVEL ANTIBIOTIC AND PRODUCTION AND USE THEREOF” (HIGETA SHOYU CO., LTD., priority 1992, dated 1993).
Converted amounts (≈) assume the structure as drawn. Numbered stars: 1 amine (or outer) side, 2 acyl side, 3 side chain; on linkers, the order of the positions; unused ones are H or OH. Square brackets hold non-standard residues; d marks the D form. Peptide text beside a SMILES is read from it. Gly(Dodecyl) = CCCCCCCCCCCC[C@H](N)C(=O)O; X1 = CCCCCCCCCCCCC[C@H](N[*:1])C(=O)[*:2]

Tests used:
Candida albicans DUC1001 = assay: Antifungal activity in vitro by counting the number of the living cells; assay type: cell-based; settings: just after addition at 25, 40 and 80 µg/ml
ddy-N mice = assay: Acute toxicity test, single intravenous injection; assay type: in vivo
Description: In the next test, mice of the same kind as mentioned above were used. Each of HUT57A and HUT57B was dissolved in DMSO (dimethylsulfoxide)-castor oil-5 % Glc solution, and the resulting solution was injected to the caudal vein of each of the five male mice once or plural times. For the single injection, the solution was administered to the mice each in an amount of 200 mg per kg of the body weight; and for the plural injections, it was administered to them 14 times each in an amount of 30 mg/kg/day.

[1] = system: Candida albicans IFM4009, Aspergillus fumigatus Tsukuba No. 12, Cryptococcus neoformans 145A; assay: Effectiveness in systemically fungi-infected mice; assay type: in vivo; settings: mice intravenously inoculated with clinically isolated strains
Description: As one example of the test of testing the effectiveness of the active substances, HUT57A or HUT57B may be administered to systemically fungi-infected mice, to which various clinically isolated strains (Candida albicans IFM4009, Aspergillus fumigatus Tsukuba No. 12, Cryptococcus neoformans 145A) were intravenously inoculated, whereby the effectiveness of administered the substance may be examined.

[2] = system: Cryptococcus neoformans IFO1320; settings: IFO1320, pH 6.8
[3] = system: Candida tropicalis IFO3256; settings: IFO3256, pH 6.8
[4] = system: Trichosporon cutaneum IFO1500; settings: pH 6.8
[5] = system: Aspergillus fumigatus IAM2612; settings: IAM2612, pH 6.8
[6] = system: Aspergillus flavas IAM2044; settings: pH 6.8
[7] = system: Mucor guilliermondii IFO9403; settings: pH 6.8
[8] = system: Trichophyton mentagrophytes IFO6124; settings: pH 6.8
[9] = system: Trichophyton rubrum IFO9185; settings: pH 6.8
[10] = system: Botrytis cinerea IFO31831; settings: pH 6.8
[11] = system: Diaporothe citiri IFO9170; settings: pH 6.8
[12] = system: Fusarium oxysporum HUT5015; settings: pH 6.8
[13] = system: Fusarium solani ATCC11712; settings: ATCC11712, pH 6.8

| SMILES | number of the living cells (Candida albicans DUC1001) | LD₅₀ by single intravenous injection (ddy-N mice) [mg/kg] | effectiveness to systemic mycosis in mice [1] | MIC [2] [µg/mL] | MIC [3] [µg/mL] | MIC [4] [µg/mL] | MIC [5] [µg/mL] | MIC [6] [µg/mL] | MIC [7] [µg/mL] | MIC [8] [µg/mL] | MIC [9] [µg/mL] | MIC [10] [µg/mL] | MIC [11] [µg/mL] | MIC [12] [µg/mL] | MIC [13] [µg/mL] | Hemolyzation Activity (Hemolyzation Activity) |
| --- | --- | --- | --- | --- | --- | --- | --- | --- | --- | --- | --- | --- | --- | --- | --- | --- |
| CCCCCCCCCCCC[C@@H]1NC(=O)[C@H](CCC(N)=O)NC(=O)[C@H](CC(N)=O)NC(=O)[C@H](Cc2ccc(O)cc2)NC(=O)[C@H](CC(N)=O)NC(=O)[C@@H]2CCCN2C(=O)[C@H](CO)NC(=O)[C@H](CC(N)=O)NC1=O [HUT57A, X-Asn-Ser-Pro-Asn-Tyr-Asn-Gln] (cyclo([Gly(Dodecyl)]NSPNYNQ)) | noticeably decreased | ≥ 200 | effective | 6.0 (≈ 5.75 µM) | 11.4 (≈ 10.9 µM) | 23.0 (≈ 22 µM) | 1.3 (≈ 1.25 µM) | 2.3 (≈ 2.2 µM) | 1.2 (≈ 1.15 µM) | 10.0 (≈ 9.59 µM) | 6.2 (≈ 5.94 µM) | 2.2 (≈ 2.11 µM) | 1.0 (≈ 0.959 µM) | 1.2 (≈ 1.15 µM) | 2.8 (≈ 2.68 µM) | - |
| CCCCCCCCCCCCC[C@@H]1NC(=O)[C@H](CCC(N)=O)NC(=O)[C@H](CC(N)=O)NC(=O)[C@H](Cc2ccc(O)cc2)NC(=O)[C@H](CC(N)=O)NC(=O)[C@@H]2CCCN2C(=O)[C@H](CO)NC(=O)[C@H](CC(N)=O)NC1=O [HUT57B, X-Asn-Ser-Pro-Asn-Tyr-Asn-Gln] (cyclo([X1]NSPNYNQ)) | noticeably decreased | ≥ 200 | effective | 5.2 (≈ 4.92 µM) | 11.2 (≈ 10.6 µM) | 23.0 (≈ 21.8 µM) | 1.3 (≈ 1.23 µM) | 2.4 (≈ 2.27 µM) | 1.2 (≈ 1.14 µM) | 10.0 (≈ 9.46 µM) | 5.4 (≈ 5.11 µM) | 2.1 (≈ 1.99 µM) | 1.0 (≈ 0.946 µM) | 1.2 (≈ 1.14 µM) | 2.8 (≈ 2.65 µM) | - |
